In patent US9329188B2, “Method for detecting invasive microvesicles derived from tumor cells” (University of Notre Dame, priority 2010, dated 2016):

Assays:
[1] = test system: parental LOX and LOXARF6-GTP cells; test: Microvesicle shedding: microvesicles released into media isolated and quantitated for protein, or surface microvesicles scored; type: cell-based
Method: Data from 5 independent experiments is plotted. Standard error bars are shown.
(§1) Standard error bars are shown.
Released microvesicles were isolated and quantitated for protein. The average of three independent experiments with standard error bars for each experimental condition is shown.
Parental LOX and LOXARF6-GTP were treated with 10 μM ML-7 for 2 hrs. Microvesicles released were isolated, quantitated for protein, and the data is shown as fold change in shedding relative to untreated LOX cells.
The total protein content of lysed microvesicles can be calculated, for example by using the Bradford assay (BioRad). This assay utilizes a spectroscopic analysis procedure to measure the concentration of protein in a solution.

ERK = conditions: cells treated with 1-butanol
Method: Studies have shown that ARF6 stimulates phospholipase D (PLD) activity (C. D'Souza-Schorey et al., Nat. Rev. Mol. Cell Biol. 7, 347-58 (2006)). […] Here, ARF6 regulated PLD activity and its involvement with ERK activation was tested. First, phospho-ERK levels upon PLD inactivation were examined. […] Next, primary alcohols were used to inhibit PLD, which results in the formation of phosphatidylalcohol at the expense of phosphatidic acid by replacing water.

LOX cells = conditions: cells expressing constitutively activated MEK; 1-butanol
From the text: Next, the role of phospho-ERK levels in microvesicle shedding was investigated. Specifically, microvesicle shedding was examined in LOXARF6-GDP cells after phospho-ERK levels were restored, or after stimulating PLD activity through pathways independent of ARF6. […] Finally, the effect of 1-butanol on microvesicle shedding induced by expression of constitutively activated MEK was investigated.

phospho-MLC [2] = test: Phospho-MLC in cell lysates by western blotting, parental LOX and LOXARF6-GTP cells; type: cell-based
Method: Additional lanes on the immunoblot between lanes 2 and 3 were spliced out. Band density was measured by densitometric scanning.
(§2) Cell lines as indicated were treated with ML-7, and cell lysates were probed for phospho-MLC and α-tubulin by Western blotting. Band density was measured by densitometric scanning. Fold increase in the ratio of phospho-MLC to α-tubulin in ML-7 treated cells relative to untreated cells is shown.
Lysates of parental LOX and LOXARF6-GTP treated with Go6976 […] for 2 hrs at 37° C. were probed for phospho-MLC and α-tubulin by Western blotting.

phospho-MLC [3] = test: Phospho-MLC in cell lysates by western blotting, LOXARF6-GDP cells; type: cell-based; conditions: Go6976 10 μM, ML-7 10 μM, U0126 30 μM for 2 hrs at 37° C.
Method: Cell lysates were probed for phospho-MLC, phospho-ERK and α-tubulin by western blotting.
as §2

PC3 and SW480 cell lines = conditions: MEK inhibition
From the text: Vesicle shedding was examined in other tumor cell lines; SW480, a colon carcinoma cell line, PC3, a prostate adenocarcinoma cell line, and MDA-MB-231, an invasive breast tumor cell line.

LOXARF6-GDP cells = test: Microvesicle shedding, cells with microvesicles at the cell surface scored; type: cell-based; conditions: LOXARF6-GDP cells treated with propranolol or atenolol
From the text: as §1
The treated cells were visualized, and those with microvesicles present at the cell surface were scored as described above.

phospho-ERK = test: Phospho-ERK and total-ERK in cell lysates, western blotting with densitometry; type: cell-based; conditions: LOXARF6-GDP cells; propranolol (0.1 mM), atenolol (10 uM)
From the text: The treated cells were probed for phospho-ERK and total-ERK. Band intensities were quantified by densitometry. The average of 3 independent experiments is plotted and standard error bars are shown.

cleaved caspase 3 = test: Cleaved caspase 3 as sign of apoptosis; type: cell-based; conditions: cells treated with okadaic acid, compared with LOX cells expressing mutant ARF6
[4] = LOX cells treated with blebbistatin or latrunculin A

CCCCO [1-butanol]
microvesicle shedding ([1]; LOX cells, 0.3% 1-butanol for 30 min, cells with eight or more surface microvesicles scored): inhibits | ERK activation (ERK): inhibits | microvesicle shedding induced by constitutively activated MEK (LOX cells): little to no effect

Cn1c2ccccc2c2c3c(c4c5ccccc5n(CCC#N)c4c21)CNC3=O [Go6976]
phospho-MLC levels (phospho-MLC [2]; Go6976 for 2 hrs at 37° C.): no decrease | phospho-MLC levels / MLC phosphorylation (phospho-MLC [3]): decreased

O=S(=O)(c1cccc2c(I)cccc12)N1CCCNCC1 [ML-7]
microvesicle shedding ([1]; parental LOX and LOXARF6-GTP cells, 10 μM ML-7 for 2 hrs): blocks | MLC phosphorylation (phospho-MLC [2]; 10 μM ML-7 for 2 hrs): blocked | phospho-MLC levels / MLC phosphorylation (phospho-MLC [3]; listed as ML7): little to no effect

N#CC(=C(/N)Sc1ccccc1N)/C(C#N)=C(\N)Sc1ccccc1N [U0126]
basal as well as ARF6-GTP enhanced microvesicle shedding [1]: significant inhibition | phospho-MLC levels (phospho-MLC [2]; U0126 (30 μM)): inhibition of phospho-MLC was evident | phospho-MLC levels / MLC phosphorylation (phospho-MLC [3]): no inhibition | microvesicle shedding (PC3 and SW480 cell lines): blocked microvesicle shedding

CC(C)NCC(O)COc1ccc(CC(N)=O)cc1 (centres unmarked) [atenolol]
microvesicle shedding / release (LOXARF6-GDP cells): did not have any effect | phospho-ERK levels (phospho-ERK): did not have any effect

Cc1ccc2c(c1)C(=O)C1(O)CCN(c3ccccc3)C1=N2 (centres unmarked) [blebbistatin]
microvesicle formation ([1]; LOX cells in the presence of blebbistatin): microvesicles do not form | microvesicle shedding [1, 4]: profoundly affected microvesicle shedding

C/C1=C/C(=O)O[C@@H]2C[C@@H](CC[C@H](C)/C=C\C=C\CC1)O[C@@](O)([C@@H]1CSC(=O)N1)C2 [latrunculin A]
microvesicle shedding [1, 4]: profoundly affected microvesicle shedding | treated cells exhibiting clustered microvesicles at the cell surface ([1]; LOX cells treated with latrunculin A): 85-90% | release of microvesicles ([1]; parental LOX and LOXARF6-GTP cells, 2 μM Latrunculin A for 45 min, released microvesicles quantitated for protein): inhibited

C=C1[C@@H](O)[C@@H]2O[C@]3(CC[C@H](/C=C/[C@@H](C)[C@@H]4CC(C)=C[C@@]5(O[C@H](C[C@@](C)(O)C(=O)O)CC[C@H]5O)O4)O3)CC[C@H]2O[C@@H]1[C@@H](O)C[C@H](C)[C@H]1O[C@@]2(CCCCO2)CC[C@H]1C [okadaic acid]
cleaved caspase 3 in cells (cleaved caspase 3): present in a higher proportion of the cells

CC(C)NCC(O)COc1cccc2ccccc12 (centres unmarked) [propranolol]
microvesicle shedding / release (LOXARF6-GDP cells): induced microvesicle shedding | microvesicle shedding / release (LOXARF6-GDP cells; listed as Propranolol): restored vesicle shedding | phospho-ERK levels (phospho-ERK): restored phospho-ERK levels
